According to PubChem BioAssay (NCI):
“And” between values parts separate entries of the source, which are not always exact repeats. Equal entries are not always repeated.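 Dose response: 5 concentrations. Exposure: 48 h. Format: 96-well plates. Endpoint: linear interpolation; highest concentration if not reached. Here, GI50 denotes the concentration required for 50% inhibition of growth. The concentration for full growth arrest is given as TGI.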

Assays:
Assay in all cases: NCI tumour cell line growth inhibition, 48 h; in the data active means GI50 below about 0.43 µM; inactive means the rest
[1] = test system: 786-0 renal
[2] = test system: A498 renal
[3] = test system: A549 NSCLC
[4] = test system: ACHN renal
[5] = test system: CAKI-1 renal
[6] = test system: CCRF-CEM leukemia
[7] = test system: COLO 205 colon
[8] = test system: DLD-1 colon
[9] = test system: DMS 114 small cell lung
[10] = test system: DMS 273 small cell lung
[11] = test system: EKVX NSCLC
[12] = test system: HCT-116 colon
[13] = test system: HCT-15 colon
[14] = test system: HL-60(TB) leukemia
[15] = test system: HOP-18 NSCLC
[16] = test system: HOP-62 NSCLC
[17] = test system: HOP-92 NSCLC
[18] = test system: HT29 colon
[19] = test system: IGROV1 ovarian
[20] = test system: K-562 leukemia
[21] = test system: KM12 colon
[22] = test system: KM20L2 colon
[23] = test system: LXFL 529 NSCLC
[24] = test system: M14 melanoma
[25] = test system: M19-MEL melanoma
[26] = test system: MALME-3M melanoma
[27] = test system: MOLT-4 leukemia
[28] = test system: NCI-H226 lung
[29] = test system: NCI-H23 lung
[30] = test system: NCI-H460 lung
[31] = test system: NCI-H522 lung
[32] = test system: OVCAR-3 ovarian
[33] = test system: OVCAR-4 ovarian
[34] = test system: OVCAR-5 ovarian
[35] = test system: OVCAR-8 ovarian
[36] = test system: RPMI-8226 leukemia
[37] = test system: RXF-631 renal
[38] = test system: SF-268 CNS
[39] = test system: SF-295 CNS
[40] = test system: SF-539 CNS
[41] = test system: SK-MEL-2 melanoma
[42] = test system: SK-MEL-28 melanoma
[43] = test system: SK-MEL-5 melanoma
[44] = test system: SK-OV-3 ovarian
[45] = test system: SN12C renal
[46] = test system: SNB-19 CNS
[47] = test system: SNB-75 CNS
[48] = test system: SNB-78 CNS
[49] = test system: SR leukemia
[50] = test system: SW-620 colon
[51] = test system: TK-10 renal
[52] = test system: U251 CNS
[53] = test system: UACC-257 melanoma
[54] = test system: UACC-62 melanoma
[55] = test system: UO-31 renal
[56] = test system: XF 498 CNS
[57] = test system: HCC-2998 colon
[58] = test system: LOX IMVI melanoma
[59] = test system: RXF 393 renal
[60] = test system: MCF7 breast
[61] = test system: NCI/ADR-RES ovarian
[62] = test system: P388 leukemia
[63] = test system: P388/ADR leukemia
[64] = test system: SN12K1 renal

O=C(CC/C(CC(=O)c1ccc(Cl)cc1)=N/O)Nc1ccc(Cl)c(Cl)c1
> 100 µM: TGI [1] | TGI [2] | TGI [3] | TGI [4] | TGI [5] | TGI [6] | TGI [7] | TGI [8] | TGI [9] | TGI [10] | TGI [11] | TGI [12] | TGI [13] | TGI [14] | TGI [15] | TGI [16] | TGI [17] | TGI [18] | TGI [19] | TGI [20] | TGI [21] | TGI [22] | TGI [23] | TGI [24] | TGI [25] | TGI [26] | TGI [27] | TGI [28] | TGI [29] | TGI [30] | TGI [31] | TGI [32] | TGI [33] | TGI [34] | TGI [35] | TGI [36] | TGI [37] | TGI [38] | TGI [39] | TGI [40] | TGI [41] | TGI [42] | TGI [43] | TGI [44] | TGI [45] | TGI [46] | TGI [47] | TGI [48] | TGI [49] | TGI [50] | TGI [51] | TGI [52] | TGI [53] | TGI [54] | TGI [55] | TGI [56]

O=C1C2C(C(=O)N1c1ccccc1)C1(c3ccccc3)OC2(c2ccccc2)c2ccccc21 (stereo not drawn)
> 100 µM: TGI [1] | TGI [3] | TGI [4] | TGI [5] | TGI [6] | TGI [7] | TGI [8] | TGI [9] | TGI [10] | TGI [11] | TGI [57] | TGI [13] | TGI [14] | TGI [15] | TGI [16] | TGI [17] | TGI [18] | TGI [19] | TGI [20] | TGI [21] | TGI [22] | TGI [58] | TGI [23] | TGI [24] | TGI [25] | TGI [26] | TGI [27] | TGI [29] | TGI [30] | TGI [31] | TGI [32] | TGI [33] | TGI [34] | TGI [35] | TGI [36] | TGI [59] | TGI [37] | TGI [38] | TGI [39] | TGI [40] | TGI [41] | TGI [42] | TGI [43] | TGI [44] | TGI [45] | TGI [46] | TGI [47] | TGI [50] | TGI [51] | TGI [52] | TGI [53] | TGI [54] | TGI [55]

O=C(O)/C=C/c1cnc[nH]1
inactive: GI50 [6] > 500 µM | GI50 [13] 284 µM and > 500 µM | GI50 [14] > 500 µM | GI50 [22] > 500 µM | GI50 [62] > 500 µM | GI50 [38] > 500 µM and 70 µM | GI50 [48] > 500 µM
> 232 µM: TGI [43]
> 500 µM: TGI [2] | TGI [3] | TGI [5] | TGI [6] | TGI [7] | TGI [8] | TGI [9] | TGI [10] | TGI [11] | TGI [57] | TGI [12] | TGI [13] | TGI [14] | TGI [15] | TGI [16] | TGI [17] | TGI [18] | TGI [19] | TGI [20] | TGI [21] | TGI [22] | TGI [58] | TGI [25] | TGI [26] | TGI [60] | TGI [27] | TGI [28] | TGI [29] | TGI [30] | TGI [31] | TGI [61] | TGI [32] | TGI [33] | TGI [34] | TGI [35] | TGI [62] | TGI [63] | TGI [36] | TGI [59] | TGI [38] | TGI [39] | TGI [40] | TGI [41] | TGI [42] | TGI [44] | TGI [45] | TGI [64] | TGI [46] | TGI [47] | TGI [48] | TGI [50] | TGI [52] | TGI [53] | TGI [54] | TGI [55] | TGI [56]
